Values after ≈ are worked out from the molar mass of the structure shown.
Assays:
Type in all cases: functional
Streptococcus pneumoniae = assay: Inhibitory activity against Streptococcus pneumoniae UC9912
[1] = tested on: Staphylococcus epidermidis; assay: Inhibitory activity against Methicillin-resistant Staphylococcus epidermidis UC12084
Mus musculus [2] = assay: Dose required to cure 50% of Staphylococcus aureus infected mice in the presence of eperezolid when orally administered; value ranges from 0.1-6.6; conditions: po
Mus musculus [3] = assay: Dose required to cure 50% of Staphylococcus aureus infected mice when orally administered; value ranges 1.1-2.7; conditions: po
Mus musculus [4] = assay: Dose(orally administered) required to cure 50% of Staphylococcus aureus infected mice; conditions: po
Mus musculus [5] = assay: Dose(orally administered) required to cure 50% of Staphylococcus aureus infected mice in the presence of vancomycin; conditions: po
Enterococcus faecalis = assay: Inhibitory activity against Enterococcus faecalis UC9217
Haemophilus influenzae = assay: Inhibitory activity against Haemophilus influenzae UC30063
Moraxella catarrhalis = assay: Inhibitory activity against Moraxella catarrhalis UC30610
Staphylococcus aureus [6] = assay: Inhibitory activity against Methicillin-resistant Staphylococcus aureus UC6685
Staphylococcus aureus [7] = assay: Inhibitory activity against Methicillin-susceptible Staphylococcus aureus UC9213
Mus musculus [8] = assay: Dose required to cure 50% of Staphylococcus aureus infected mice in the presence of eperezolid when orally administered; value ranges from 1.1-2.8; conditions: po
Mus musculus [9] = assay: Dose required to cure 50% of Staphylococcus aureus infected mice when orally administered; conditions: po
Mus musculus [10] = assay: Dose required to cure 50% of Staphylococcus aureus infected mice when administered orally; conditions: po
Mus musculus [11] = assay: Dose required to cure 50% of Staphylococcus aureus infected mice in the presence of eperezolid when administered orally.; conditions: po
Mus musculus [12] = assay: Dose required to cure 50% of Staphylococcus aureus infected mice in the presence of vancomycin when orally administered; value ranges from 0.5-1.5; conditions: po
Mus musculus [13] = assay: Dose(orally administered) required to cure 50% of Staphylococcus aureus infected mice in the presence of eperezolid; conditions: po
Mus musculus [14] = assay: Dose required to cure 50% of Staphylococcus aureus infected mice when administered orally; value ranges from 3.1-13.1; conditions: po
Mus musculus [15] = assay: Dose required to cure 50% of Staphylococcus aureus infected mice in the presence of vancomycin when administered orally; value arnges from 1.0-3.2; conditions: po
Mus musculus [16] = assay: Dose(orally administered) required to cure 50% of Staphylococcus aureus infected mice in the presence of eperezolid (95% confidence limits); conditions: po
Mus musculus [17] = assay: Dose administered required to cure 50% of Staphylococcus aureus infected mice when administered orally; value ranges from 2.0-4.9; conditions: po
Mus musculus [18] = assay: Dose required to cure 50% of Staphylococcus aureus infected mice in the presence of eperezolid when administered orally;value ranges from 1.9-6.6; conditions: po
Mus musculus [19] = assay: Dose required to cure 50% of Staphylococcus aureus infected mice in the presence of eperezolid when orally administered; value ranges from 2.2-2.9; conditions: po
Mus musculus [20] = assay: Dose required to cure 50% of Staphylococcus aureus infected mice when orally administered; value ranges from 3.5-9.1; conditions: po
Mus musculus [21] = assay: Dose required to cure 50% of Staphylococcus aureus infected mice in the presence of eperezolid when administered orally; value ranges from 1.8-7.0; conditions: po
Mus musculus [22] = assay: Dose required to cure 50% of Staphylococcus aureus infected mice when aministered orally; value ranges from 0.8-2.0; conditions: po
Mus musculus [23] = assay: Dose required to cure 50% of Staphylococcus aureus infected mice in the presence of eperezolid when administered orally; value ranges from 1.8-4.4; conditions: po

SMILES	MIC (Streptococcus pneumoniae) [µg/mL]	MIC [1] [µg/mL]	ED50 (Mus musculus [4]) [mg/kg/day]	MIC (Enterococcus faecalis) [µg/mL]	MIC (Haemophilus influenzae) [µg/mL]	MIC (Moraxella catarrhalis) [µg/mL]	MIC (Staphylococcus aureus [6]) [µg/mL]	MIC (Staphylococcus aureus [7]) [µg/mL]	further results
CC(=O)NC[C@H]1CN(c2ccc(-n3ccc(C#N)c3)c(F)c2)C(=O)O1	≤ 0.125	≤ 0.125	–	–	–	–	–	–	ED50 (Mus musculus [2]): 4 mg/kg/day; ED50 (Mus musculus [3]): 1.9 mg/kg/day
CC(=O)NC[C@H]1CN(c2ccc(-n3ccc(C=O)c3)c(F)c2)C(=O)O1	< 0.06	0.125 (≈ 0.362 µM)	> 20	–	–	–	–	–	ED50 (Mus musculus [5]): 1.7 mg/kg/day
CC(=O)NC[C@H]1CN(c2ccc(-n3cccn3)c(F)c2)C(=O)O1	1 (≈ 3.14 µM)	1 (≈ 3.14 µM)	–	2 (≈ 6.28 µM)	32 (≈ 101 µM)	16 (≈ 50.3 µM)	2 (≈ 6.28 µM)	2 (≈ 6.28 µM)	ED50 (Mus musculus [8]): 1.8 mg/kg/day; ED50 (Mus musculus [9]): > 20 mg/kg/day
CC(=O)NC[C@H]1CN(c2ccc(-n3cnc(Cl)n3)c(F)c2)C(=O)O1	< 0.125	0.5 (≈ 1.41 µM)	9.4	2 (≈ 5.65 µM)	16 (≈ 45.2 µM)	2 (≈ 5.65 µM)	2 (≈ 5.65 µM)	4 (≈ 11.3 µM)	ED50 (Mus musculus [5]): 5 mg/kg/day
CC(=O)NC[C@H]1CN(c2ccc(-n3ccc(C(C)=O)c3)c(F)c2)C(=O)O1	0.25 (≈ 0.696 µM)	0.5 (≈ 1.39 µM)	–	1 (≈ 2.78 µM)	16 (≈ 44.5 µM)	4 (≈ 11.1 µM)	1 (≈ 2.78 µM)	2 (≈ 5.57 µM)	ED50 (Mus musculus [10]): 6.5 mg/kg/day; ED50 (Mus musculus [11]): 10 mg/kg/day
CC(=O)NC[C@H]1CN(c2ccc(-n3ccc(CO)c3)c(F)c2)C(=O)O1	0.25 (≈ 0.72 µM)	0.25 (≈ 0.72 µM)	–	1 (≈ 2.88 µM)	4 (≈ 11.5 µM)	2 (≈ 5.76 µM)	1 (≈ 2.88 µM)	1 (≈ 2.88 µM)	ED50 (Mus musculus [12]): 0.9 mg/kg/day; ED50 (Mus musculus [9]): > 20 mg/kg/day
CC(=O)NC[C@H]1CN(c2ccc(-n3cc(C=O)nn3)c(F)c2)C(=O)O1	0.25 (≈ 0.72 µM)	< 0.125	> 20	0.5 (≈ 1.44 µM)	4 (≈ 11.5 µM)	2 (≈ 5.76 µM)	0.25 (≈ 0.72 µM)	0.5 (≈ 1.44 µM)	ED50 (Mus musculus [13]): 1.1 mg/kg/day
CC(=O)NC[C@H]1CN(c2ccc(-n3cncn3)c(F)c2)C(=O)O1	1 (≈ 3.13 µM)	1 (≈ 3.13 µM)	–	4 (≈ 12.5 µM)	32 (≈ 100 µM)	16 (≈ 50.1 µM)	4 (≈ 12.5 µM)	4 (≈ 12.5 µM)	ED50 (Mus musculus [14]): 5.7 mg/kg/day; ED50 (Mus musculus [15]): 2.4 mg/kg/day
CCOC(=O)/C=C/c1ccn(-c2ccc(N3C[C@H](CNC(C)=O)OC3=O)cc2F)c1	0.5 (≈ 1.2 µM)	2 (≈ 4.81 µM)	> 20	2 (≈ 4.81 µM)	32 (≈ 77 µM)	4 (≈ 9.63 µM)	4 (≈ 9.63 µM)	4 (≈ 9.63 µM)	ED50 (Mus musculus [16]): 2.1 mg/kg/day
CC(=O)NC[C@H]1CN(c2ccc(-n3ncc(C#N)n3)c(F)c2)C(=O)O1	≤ 0.125	≤ 0.125	–	0.5 (≈ 1.45 µM)	8 (≈ 23.2 µM)	2 (≈ 5.81 µM)	0.5 (≈ 1.45 µM)	0.5 (≈ 1.45 µM)	ED50 (Mus musculus [17]): 3.2 mg/kg/day; ED50 (Mus musculus [18]): 3.8 mg/kg/day
CC(=O)NC[C@H]1CN(c2ccc(-n3ccc(/C=N\O)c3)c(F)c2)C(=O)O1	≤ 0.125	–	–	–	–	–	–	–	ED50 (Mus musculus [19]): 2.6 mg/kg/day; ED50 (Mus musculus [20]): 5.5 mg/kg/day
CC(=O)NC[C@H]1CN(c2ccc(-n3cc(C#N)cn3)c(F)c2)C(=O)O1	≤ 0.125	0.25 (≈ 0.728 µM)	–	–	–	–	–	–	ED50 (Mus musculus [21]): 3.3 mg/kg/day; ED50 (Mus musculus [22]): 1.2 mg/kg/day
COC(=O)c1ccn(-c2ccc(N3C[C@H](CNC(C)=O)OC3=O)cc2F)c1	0.25 (≈ 0.666 µM)	0.5 (≈ 1.33 µM)	–	1 (≈ 2.66 µM)	> 16	16 (≈ 42.6 µM)	2 (≈ 5.33 µM)	2 (≈ 5.33 µM)	ED50 (Mus musculus [10]): > 20 mg/kg/day; ED50 (Mus musculus [23]): 2.9 mg/kg/day
